Data published in patent publication US7041785B1, “B1-bradykinin receptor antagonists and use thereof” (Université de Sherbrooke, priority 1996, dated 2006).
Like-named read-outs stand apart in the source and are kept apart here. Non-standard residues stand in square brackets, D forms with d. Residues, ends and D or L forms follow the SMILES beside them. Oic = O=C(O)[C@@H]1C[C@@H]2CCCC[C@@H]2N1; 2Nal = N[C@@H](Cc1ccc2ccccc2c1)C(=O)O; d2Nal = N[C@H](Cc1ccc2ccccc2c1)C(=O)O; Hyp = O=C(O)[C@@H]1C[C@@H](O)CN1; Tic = O=C(O)[C@@H]1Cc2ccccc2CN1; dTic = O=C(O)[C@H]1Cc2ccccc2CN1; 2Thi = N[C@@H](Cc1cccs1)C(=O)O; Sar = CNCC(=O)O

What was measured:
[1] = tested on: T1, angiotensin-converting enzyme (ACE); experiment: Metabolic degradation by purified angiotensin-converting enzyme, HPLC analysis; format: in vitro ADME, rabbit; settings: rabbit, isolated enzyme ace, pH 7.5
T1 construct: purified angiotensin-converting enzyme (ACE) from rabbit lungs; purchased Sigma, St-Louis, Mo; host or cells: purified from rabbit lungs
Experimental: (§1) The metabolic stability of various kinin-related peptides was evaluated by incubating the peptide in the presence of purified angiotensin-converting enzyme (ACE) from rabbit lungs (purchased from Sigma, St-Louis, Mo.) dissolved in phosphate buffered saline (PBS) (50 mmol/L, pH 7.5 containing 300 mmoL/L NaCl); the final concentration of enzyme was 45 μg/mL. The experimental protocol for the measurement of ACE activity has been described elsewhere^15,16. Briefly, 200 μmol/L of peptides (40 μL) were placed in a PBS buffer and incubated for 5 min at 37EC before adding 8.5 μL of ACE (total volume of the reaction medium; 190 μL). Samples were withdrawn at 30 min intervals, immersed in boiling water for 5 min, then cooled on ice and centrifuged (5 min) before proceeding to analysis of peptides by high pressure liquid chromatography (HPLC). Results of ACE metabolism are expressed in percent of kinin degradation following the incubation (30 min) of kinin substrates with the enzyme.
(§2) Pure peptides and metabolic products were analysed by reverse-phas HPLC on a C18 μBondapak column (4.6 mm×25 cm) (Waters) of 10-μm particle size. The peptides and their fragments were eluted at the rate of 2.0 mL/min. with a linear gradient ranging from 5 to 65% of acetonitrile/TFA 0.05%/water over 20 min. at room temperature. The elution positions of these peptides were determined by following the absorbance at 214 nm. For each assay, 50 μL of the reaction medium (treated or not with ACE) were extracted and injected into the column. Concentrations of the peaks products, different from the peaks of the peptide substrate, were estimated using a computer software program (Baseline 810; Waters) that controlled also all the chromatography operations. Isolated metabolites and substrates were collected and identified by Electrospray mass spectrometry (positive mode).

[2] = biological target: T2, angiotensin-converting enzyme (ACE) from rabbit lungs (Oryctolagus cuniculus, UniProt P12822); experiment: as above; format: in vitro ADME; parameters: purified angiotensin-converting enzyme (ACE) from rabbit lungs; purchased Sigma, St-Louis, Mo; host or cells: purified from rabbit lungs
T2 sequence (P12822 34-1310): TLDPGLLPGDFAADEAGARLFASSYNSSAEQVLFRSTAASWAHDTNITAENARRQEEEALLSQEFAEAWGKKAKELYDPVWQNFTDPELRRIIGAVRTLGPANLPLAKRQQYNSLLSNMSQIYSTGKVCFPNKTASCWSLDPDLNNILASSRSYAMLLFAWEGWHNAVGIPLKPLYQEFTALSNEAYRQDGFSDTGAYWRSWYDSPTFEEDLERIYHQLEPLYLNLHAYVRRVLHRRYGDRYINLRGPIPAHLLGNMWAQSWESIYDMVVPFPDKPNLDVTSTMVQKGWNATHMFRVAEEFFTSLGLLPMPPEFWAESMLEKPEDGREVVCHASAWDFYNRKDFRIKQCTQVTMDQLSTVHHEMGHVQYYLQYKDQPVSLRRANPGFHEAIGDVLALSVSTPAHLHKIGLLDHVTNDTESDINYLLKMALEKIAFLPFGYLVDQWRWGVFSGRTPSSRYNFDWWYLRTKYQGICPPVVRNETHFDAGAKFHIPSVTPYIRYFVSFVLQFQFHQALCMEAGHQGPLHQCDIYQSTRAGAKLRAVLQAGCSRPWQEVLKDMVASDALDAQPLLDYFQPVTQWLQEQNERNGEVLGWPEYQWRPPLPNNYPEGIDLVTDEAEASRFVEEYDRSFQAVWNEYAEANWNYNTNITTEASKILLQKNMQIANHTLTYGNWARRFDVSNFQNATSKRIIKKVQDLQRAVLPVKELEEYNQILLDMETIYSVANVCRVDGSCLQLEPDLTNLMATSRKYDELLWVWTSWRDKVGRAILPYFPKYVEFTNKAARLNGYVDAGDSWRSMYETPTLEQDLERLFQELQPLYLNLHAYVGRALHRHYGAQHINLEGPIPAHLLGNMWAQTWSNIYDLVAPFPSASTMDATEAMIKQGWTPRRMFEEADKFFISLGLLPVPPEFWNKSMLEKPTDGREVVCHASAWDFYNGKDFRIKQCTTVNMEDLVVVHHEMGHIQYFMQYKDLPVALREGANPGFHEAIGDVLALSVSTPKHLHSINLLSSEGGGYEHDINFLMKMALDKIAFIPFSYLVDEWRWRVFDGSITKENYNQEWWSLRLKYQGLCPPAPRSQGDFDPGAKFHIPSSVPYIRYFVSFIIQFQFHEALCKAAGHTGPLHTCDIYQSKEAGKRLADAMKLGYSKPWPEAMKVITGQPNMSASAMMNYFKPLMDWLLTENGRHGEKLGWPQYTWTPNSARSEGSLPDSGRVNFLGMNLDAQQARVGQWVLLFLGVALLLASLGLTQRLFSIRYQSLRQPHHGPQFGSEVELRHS
Experimental: as §1, §2

[3] = 30 min incubation of peptide (200 μmol/L) with ACE, 37 C, read-out: ACE (% degradation)

`CC(C)C[C@H](NC(=O)[C@H]1Cc2ccccc2CN1C(=O)[C@H](CO)NC(=O)[C@H](Cc1ccccc1)NC(=O)CNC(=O)[C@@H]1CCCN1C(=O)[C@@H]1CCCN1C(=O)[C@@H](N)CCCNC(=N)N)C(=O)O` [Compound 8, (D-Tic^7, Leu^8)desArg^9BK] (H-RPPGFS[dTic]L-OH; N-terminus and C-terminus assumed) was tested, and the metabolised at 0.5 h [1] was 0% and the “Less susceptible to ACE proteolytic degradation, relative to Lys(Leu8)desArgBK” value (shortened to “Less susceptible … relative to Lys(Leu8)desArgBK”) [2] was 2-5 times.
For `CNCC(=O)N[C@@H](CCCNC(=N)N)C(=O)N1CCC[C@H]1C(=O)N1CCC[C@H]1C(=O)NCC(=O)N[C@@H](Cc1ccccc1)C(=O)N[C@@H](CO)C(=O)N1Cc2ccccc2C[C@@H]1C(=O)N[C@@H](CC(C)C)C(=O)O` [Compound 9, Sar(D-Tic^7, Leu^8)desArg^9BK] (H-[Sar]RPPGFS[dTic]L-OH; N-terminus and C-terminus assumed), the metabolised at 0.5 h [1, 3] was 0% and the “Less susceptible … relative to Lys(Leu8)desArgBK” value [2] was 2-5 times.
`CC(C)C[C@H](NC(=O)[C@H]1Cc2ccccc2CN1C(=O)[C@H](CO)NC(=O)[C@H](Cc1ccccc1)NC(=O)CNC(=O)[C@@H]1CCCN1C(=O)[C@@H]1CCCN1C(=O)[C@H](CCCNC(=N)N)NC(=O)[C@H](N)CCCNC(=N)N)C(=O)O` [Compound 12, D-Arg(D-Tic^7, Leu^8)desArg^9BK] (H-[dR]RPPGFS[dTic]L-OH; N-terminus and C-terminus assumed) was tested, and the metabolised at 0.5 h [1] was 0% and the “Less susceptible … relative to Lys(Leu8)desArgBK” value [2] was 2-5 times.
With `CC[C@H](C)[C@H](NC(=O)[C@H]1Cc2ccccc2CN1C(=O)[C@H](CO)NC(=O)[C@H](Cc1ccccc1)NC(=O)CNC(=O)[C@@H]1CCCN1C(=O)[C@@H]1CCCN1C(=O)[C@H](CCCNC(=N)N)NC(=O)[C@H](N)CCCNC(=N)N)C(=O)O` [Compound 13, D-Arg(D-Tic^7, Ile^8)desArg^9BK] (H-[dR]RPPGFS[dTic]I-OH; N-terminus and C-terminus assumed) the metabolised at 0.5 h [1] was 9 ± 1% and the “Less susceptible … relative to Lys(Leu8)desArgBK” value [2] was 2-5 times.
`CC[C@H](C)[C@H](NC(=O)[C@@H]1Cc2ccccc2CN1C(=O)[C@H](CO)NC(=O)[C@H](Cc1ccccc1)NC(=O)CNC(=O)[C@@H]1CCCN1C(=O)[C@@H]1CCCN1C(=O)[C@H](CCCNC(=N)N)NC(=O)[C@H](N)CCCNC(=N)N)C(=O)O` [Compound 14, D-Arg(L-Tic^7, Ile^8)desArg^9BK] (H-[dR]RPPGFS[Tic]I-OH; N-terminus and C-terminus assumed) showed a metabolised at 0.5 h [1] of 77 ± 3%.
For `CC(C)C[C@H](NC(=O)[C@H]1Cc2ccccc2CN1C(=O)[C@H](CO)NC(=O)[C@H](Cc1ccccc1)NC(=O)CNC(=O)[C@@H]1C[C@@H](O)CN1C(=O)[C@@H]1CCCN1C(=O)[C@H](CCCNC(=N)N)NC(=O)[C@H](N)CCCNC(=N)N)C(=O)O` [Compound 17, D-Arg(Hyp^3, D-Tic^7, Leu^8)desArg^9BK] (H-[dR]RP[Hyp]GFS[dTic]L-OH; N-terminus and C-terminus assumed), the metabolised at 0.5 h [1] was 0% and the “Less susceptible … relative to Lys(Leu8)desArgBK” value [2] was 2-5 times.
`CC(=O)N[C@@H](CCCCN)C(=O)N[C@@H](CCCNC(=N)N)C(=O)N1CCC[C@H]1C(=O)N1CCC[C@H]1C(=O)NCC(=O)N[C@@H](Cc1ccccc1)C(=O)N[C@@H](CO)C(=O)N[C@H](Cc1ccc2ccccc2c1)C(=O)N[C@@H](CC(C)C)C(=O)O` [Compound 18, AcLys(D-βNal^7, Leu^8)desArg^9BK] (Ac-KRPPGFS[d2Nal]L-OH; C-terminus assumed) was tested, and the metabolised at 0.5 h, 42.1 μmol/L [1] was 22 ± 1% and the “Less susceptible … relative to Lys(Leu8)desArgBK” value [2] was 2-5 times.
With `CC[C@H](C)[C@H](NC(=O)[C@@H](Cc1ccc2ccccc2c1)NC(=O)[C@H](CO)NC(=O)[C@H](Cc1ccccc1)NC(=O)CNC(=O)[C@@H]1CCCN1C(=O)[C@@H]1CCCN1C(=O)[C@H](CCCN=C(N)N)NC(=O)[C@H](CCCCN)NC(C)=O)C(=O)O` [Compound 19, AcLys(D-βNal^7, Ile^8)desArg^9BK] (Ac-KRPPGFS[d2Nal]I-OH) the metabolised at 0.5 h, 42.1 μmol/L [1] was 34 ± 1% and the “Less susceptible … relative to Lys(Leu8)desArgBK” value [2] was 2-5 times.
`CC[C@H](C)[C@H](NC(=O)[C@H](Cc1ccc2ccccc2c1)NC(=O)[C@H](CO)NC(=O)[C@H](Cc1ccccc1)NC(=O)CNC(=O)[C@@H]1CCCN1C(=O)[C@@H]1CCCN1C(=O)[C@H](CCCNC(=N)N)NC(=O)[C@H](CCCCN)NC(C)=O)C(=O)O` [Compound 20, AcLys(L-βNal^7, Ile^8)desArg^9BK] (Ac-KRPPGFS[2Nal]I-OH; C-terminus assumed) showed a metabolised at 0.5 h, 42.1 μmol/L [1] of 99 ± 1%.
In the case of `CC[C@H](C)[C@H](NC(=O)[C@@H](Cc1ccc2ccccc2c1)NC(=O)[C@H](CO)NC(=O)[C@H](Cc1ccccc1)NC(=O)CNC(=O)[C@@H]1CCCN1C(=O)[C@@H]1CCCN1C(=O)[C@H](CCCNC(=N)N)NC(=O)[C@H](N)CCCNC(=N)N)C(=O)O` [Compound 23, D-Arg(D-βNal^7, Ile^8)desArg^9BK] (H-[dR]RPPGFS[d2Nal]I-OH; N-terminus and C-terminus assumed), the metabolised at 0.5 h, 42.1 μmol/L [1] is reported as 8 ± 1% and the “Less susceptible … relative to Lys(Leu8)desArgBK” value [2] is reported as 2-5 times.
With `CC(C)C[C@H](NC(=O)[C@@H](Cc1ccc2ccccc2c1)NC(=O)[C@H](CO)NC(=O)[C@H](Cc1ccccc1)NC(=O)CNC(=O)[C@@H]1CCCN1C(=O)[C@@H]1CCCN1C(=O)[C@H](CCCNC(=N)N)NC(=O)[C@H](N)CCCNC(=N)N)C(=O)O` [Compound 24, D-Arg(D-βNal^7, Leu^8)desArg^9BK] (H-[dR]RPPGFS[d2Nal]L-OH; N-terminus and C-terminus assumed) the metabolised at 0.5 h, 42.1 μmol/L [1] was 5 ± 1% and the “Less susceptible … relative to Lys(Leu8)desArgBK” value [2] was 2-5 times.
`CC[C@H](C)[C@H](NC(=O)[C@@H](Cc1ccc2ccccc2c1)NC(=O)[C@H](CO)NC(=O)[C@H](Cc1ccccc1)NC(=O)CNC(=O)[C@@H]1CCCN1C(=O)[C@@H]1CCCN1C(=O)[C@H](CCCNC(=N)N)NC(=O)[C@H](N)CCCCN)C(=O)O` [Compound 25, D-Lys(D-βNal^7, Ile^8)desArg^9BK] (H-[dK]RPPGFS[d2Nal]I-OH; N-terminus and C-terminus assumed) was tested, and the metabolised at 0.5 h, 42.1 μmol/L [1] was 9 ± 2% and the “Less susceptible … relative to Lys(Leu8)desArgBK” value [2] was 2-5 times.
For `N=C(N)NCCC[C@@H](N)C(=O)N[C@@H](CCCNC(=N)N)C(=O)N1CCC[C@H]1C(=O)N1C[C@H](O)C[C@H]1C(=O)NCC(=O)N[C@@H](Cc1cccs1)C(=O)N[C@@H](CO)C(=O)N1Cc2ccccc2C[C@@H]1C(=O)N1[C@H](C(=O)O)C[C@@H]2CCCC[C@@H]21` [Compound 31, D-Arg(Hyp^3, Thi^5, D-Tic^7, Oic^8)desArg^9BK, reference compound] (H-[dR]RP[Hyp]G[2Thi]S[dTic][Oic]-OH; N-terminus and C-terminus assumed), the metabolised at 0.5 h [1, 3] was 0%.
